Patent US20240376504A1, “ENZYMATIC SYNTHESIS OF MYCOSPORINE-LIKE AMINO ACIDS” (University of Florida Research Foundation, Incorporated, priority 2021, published 2024)

Key:
[1] = test system: recombinant His6-tagged MysD; assay: MysD reaction, relative activity of amino acid substrates (MG consumption by HPLC); format: biochemical, Nostoc linkia NIES-25; details: 0.25 μM MysD; L-Thr reaction (8 min) set as 100%; from concentrations of disubstituted MAAs produced
Description: The current and previous heterologous expression studies supported the function of MysD in the biosynthesis of disubstituted MAAs (FIG. 3).^29,35 To further characterize its catalytic properties, recombinant His6-tagged MysD of N. linkia NIES-25 was prepared from E. coli after a single affinity purification (FIG. 21). The enzyme reaction was performed with MysD (0.5 μM), MG (50 μM), and L-Thr (1 mM) in the presence of ATP (1 mM) and Mg^2+ (10 mM) at room temperature for 2 h. […] No product was formed in the control reactions without enzyme or ATP (FIG. 5A). The requirement of ATP for the MysD reaction supports its prediction as the D-Ala-D-Ala ligase-like enzyme of the ATP grasp superfamily.^29 The optimal temperature and pH of its reaction were determined at 37° C. and pH=8.5 (FIG. 22). Under these optimal reaction conditions, all 20 natural amino acids were screened (5 mM) along with MG (50 μM) in the MysD reaction. […] LC-HRMS and MS/MS analysis indicated the formation of their corresponding disubstituted MAAs, MG-Ala, MG-Arg (observed [M+H]^+: 402.1977; calculated [M+H]^+: 402.1983), MG-Cys (observed [M+H]^+: 349.1059; calculated [M+H]^+: 349.1064), mycosporine-2-Gly (observed [M+H]^+: 303.1182; calculated [M+H]^+: 303.1187), shinorine, and porphyra-334 (FIGS. 24, 25, and 26). L-Ser and L-Thr led to the complete consumption of MG in the MysD reactions after 3 h, followed by L-Cys. […] Nonetheless, the result of this biochemical study well agreed with the production of porphyra-334 along with small amounts of shinorine and MG-Ala in the above heterologous expression study (FIG. 3C). To further understand MysD's substrate preference, the enzyme concentration was lowered to 0.25 μM. […] The consumed MG level in this reaction was set as 100% to normalize its level in the five other reactions, which was determined from the concentrations of produced disubstituted MAAs in the reactions (FIG. 5C). […] Together, the results of these biochemical studies highlight the broad substrate scope of MysD and its strong preference toward L-Thr in the MAA biosynthesis.
MysD Reaction. […] The quality of MG was calculated based on its reported extinction coefficient (28,100 M^−1 cm^−1). […] The reactions were terminated and then analyzed in the HPLC and/or LC-MS analysis. […] First, the reactions were performed with 0.25 μM MysD for 8 min, which led to no more than 50% consumption of MG into porphyra-334 with the best substrate L-Thr and into shinorine with L-Ser. For the other four amino acids, the levels of their corresponding disubstituted MAAs were determined after the reaction time was elongated to 30 min. […]
HPLC and LC-MS Analysis. Samples were analyzed on a Shimadzu Prominence UHPLC system (Kyoto, Japan) coupled with a PDA detector. […]

[2] = reported value used to calculate MG; cited from earlier work

Compound | consumption level of MG in the MysD reaction relative to that with L-Thr [1] | extinction coefficient [2]
C[C@H](N)C(=O)O [L-Ala] | 0.4% | –
COC1=C(NCC(=O)O)C[C@@](O)(CO)CC1=O [MG, mycosporine-glycine] | – | 28,100 M^−1 cm^−1
N[C@@H](CS)C(=O)O [L-Cys] | 0.9% | –
C[C@@H](O)[C@H](N)C(=O)O [L-Thr] | 100% | –
N[C@@H](CO)C(=O)O [L-Ser] | about 12.7% | –
